According to paper PMC13210772, “Dual FLT3/MAPK14 Proteolysis-Targeting Chimera (PROTAC) Induces Potent Acute Myeloid Leukemia Cell Death” (Pharmaceuticals, 2026):

Columns and labels:
FLT3-ITD = biological target: T1, FLT3-ITD (Homo sapiens, UniProt P36888, INS600HVDFREYEYD); assay: FLT3-ITD degradation, immunoblot in MV4-11 cells; settings: for inhibition at 0.05 µM: MV4-11, 24 h, read-out: % FLT3-ITD Degradation at 50 nM
T1 sequence (P36888 with tags, fused parts or gaps INS600HVDFREYEYD): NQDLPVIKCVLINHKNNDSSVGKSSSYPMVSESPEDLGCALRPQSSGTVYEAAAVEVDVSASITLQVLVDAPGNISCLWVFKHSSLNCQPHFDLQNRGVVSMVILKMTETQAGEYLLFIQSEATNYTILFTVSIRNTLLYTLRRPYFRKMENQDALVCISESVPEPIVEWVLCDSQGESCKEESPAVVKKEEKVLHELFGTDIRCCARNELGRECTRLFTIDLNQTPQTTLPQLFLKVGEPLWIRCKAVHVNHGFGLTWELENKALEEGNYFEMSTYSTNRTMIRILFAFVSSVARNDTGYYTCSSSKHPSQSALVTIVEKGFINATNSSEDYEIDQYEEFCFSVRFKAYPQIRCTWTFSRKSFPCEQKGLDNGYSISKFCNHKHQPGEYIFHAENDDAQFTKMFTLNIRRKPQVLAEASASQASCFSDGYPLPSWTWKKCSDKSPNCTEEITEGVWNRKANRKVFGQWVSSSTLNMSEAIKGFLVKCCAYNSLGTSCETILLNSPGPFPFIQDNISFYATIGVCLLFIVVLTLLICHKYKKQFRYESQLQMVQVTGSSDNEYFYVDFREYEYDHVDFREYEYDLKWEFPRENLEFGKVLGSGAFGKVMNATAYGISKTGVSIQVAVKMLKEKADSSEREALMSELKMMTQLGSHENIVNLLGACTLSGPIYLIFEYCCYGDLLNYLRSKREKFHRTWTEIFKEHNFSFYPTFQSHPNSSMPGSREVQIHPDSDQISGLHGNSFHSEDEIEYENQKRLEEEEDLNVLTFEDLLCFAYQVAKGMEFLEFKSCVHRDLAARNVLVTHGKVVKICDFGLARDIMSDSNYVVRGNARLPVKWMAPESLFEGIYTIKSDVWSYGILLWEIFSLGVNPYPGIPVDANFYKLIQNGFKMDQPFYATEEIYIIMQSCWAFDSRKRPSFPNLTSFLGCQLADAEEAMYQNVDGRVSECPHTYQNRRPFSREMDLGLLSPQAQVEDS

[1] = Metabolic stability in liver microsomes
in vitro = settings: CD-1, mouse, liver microsomes, pH 7.4
[2] = Non-enzymatic stability under cellular assay conditions (HPLC); assay type: physicochemical; settings: compound remaining, assay medium DMEM, 37 °C
Method: An important aspect in the development of PROTACs is testing chemical stability. On the one hand, we tested all PROTACs produced for their stability under cellular assay conditions. For this purpose, 10 µM solutions of the PROTACs and reference inhibitor were incubated for 72 h at 37 °C with the assay medium DMEM. The remaining amount of the compounds was determined by HPLC after 6, 12, 24, 48 and 72 h. The results of the stability studies are shown in Table S2 (Supplementary Information).
The developed compounds were diluted in the assay media consisting of a mixture of DMEM (50%), DMSO (10%) and acetonitrile (40%) at pH 7.4 and incubated at 37 °C for 72 h. The quantity of the compounds was measured after 6, 12, 24, 48, and 72 h by HPLC using an XTerra RP18 column ([…], 3.9 mm × 100 mm) from the manufacturer Waters (Milford, MA, USA) and two LC-10AD pumps, an SPD-M10AVP PDA detector, and an SIL-HT autosampler, all from the manufacturer Shimadzu (Kyoto, Japan).

For Cc1ncsc1-c1ccc([C@H](C)NC(=O)[C@H]2C[C@H](O)CN2C(=O)[C@@H](NC(=O)[C@H]2CC[C@H](C(=O)N3CCC(CCNC(=O)c4cc(Oc5ccc(NC(=O)Nc6cc(C(C)(C)C)on6)cc5)ccn4)CC3)CC2)C(C)(C)C)cc1 [MA224, 4-(4-(3-(5-(tert-Butyl)isoxazol-3-yl)ureido)phenoxy)-N-(2-(1-(trans-4-(((S)-1-((2R,4S)-4-hydroxy-2-(((S)-1-(4-(4-methylthiazol-5-yl)phenyl)ethyl)carbamoyl)pyrrolidin-1-yl)-3,3-dimethyl-1-oxobutan-2-yl)carbamoyl)cyclohexanecarbonyl)piperidin-4-yl)ethyl)picolinamide], the “% FLT3-ITD Degradation at 50 nM” value (FLT3-ITD; MV4-11 cells, 50 nM, 24 h) was “No effect”.

With NS(=O)(=O)OC[C@@H]1C[C@@H](n2ccc3c(N[C@H]4CCc5ccccc54)ncnc32)C[C@@H]1O [MLN4924, reference compound] the “rescue of MA191-mediated degradation” value (FLT3-ITD; 50 nM MA191 ± 3 µM MLN4924, 6 h, MV4-11 and MOLM-13 cells) was “prevented the MA191-mediated degradation of FLT3-ITD as well as MAPK14”.

For O=C(O)Cc1ccccc1Nc1c(Cl)cccc1Cl [Diclofenac, Diclofenac sodium, reference compound], the “0 min—Compound Remaining %” value ([1]; mouse (CD-1) liver microsomes, 25 μM, 0 min) was 100%, the “30 min—Compound Remaining %” value ([1]; mouse (CD-1) liver microsomes, 25 μM, 30 min) was 79.0 ± 1.3% and the “120 min—Compound Remaining %” value ([1]; mouse (CD-1) liver microsomes, 25 μM, 120 min) was 60.8 ± 2.2%. For the same compound, the “0 min - compound remaining %” value ([1]; single runs A and B (Table S3), 0 min) was 100%, the “10 min - compound remaining %” value ([1]; single runs A and B (Table S3), 10 min) was 96% and the “30 min - compound remaining %” value ([1]; single runs A and B (Table S3), 30 min, listed as Diclofenac_A) was 80%. It also gave a remaining at 10 min, 25 µM (in vitro) of 94.7 ± 1.7%, a remaining at 0.5 h, 25 µM (in vitro) of 78% and a remaining at 1 h, 25 µM (in vitro) of 73%. The remaining at 2 h, 25 µM (in vitro) was 59%.

With Cc1ncsc1-c1ccc([C@H](C)NC(=O)[C@@H]2C[C@@H](O)CN2C(=O)[C@@H](NC(=O)CCCCCCCNC(=O)c2cc(Oc3ccc(NC(=O)Nc4cccc(C(F)(F)F)c4)cc3)ccn2)C(C)(C)C)cc1 [MA42, N-(8-(((S)-1-((2S,4R)-4-Hydroxy-2-(((S)-1-(4-(4-methylthiazol-5-yl)phenyl)ethyl)carbamoyl)-pyrrolidin-1-yl)-3,3-dimethyl-1-oxobutan-2-yl)amino)-8-oxooctyl)-4-(4-(3-(3-(trifluoromethyl)phenyl)ureido)phenoxy)picolinamide] the “0 h - %” value [2] was 100%, the 6 h- % [2] was 99.7% and the 12 h- % [2] was 100.0%. The 24 h- % [2] was 100.2%, the 48 h- % [2] was 100.8% and the 72 h- % [2] was 101.0%. For the same compound, the inhibition at 0.05 µM (FLT3-ITD) was 30% and the “FLT3-ITD degradation” value (FLT3-ITD; MV4-11 cells, 50 nM, 24 h) was “no significant degradation”.

In the case of Cc1ncsc1-c1ccc([C@H](C)NC(=O)[C@@H]2C[C@@H](O)CN2C(=O)[C@@H](NC(=O)CCCCCNC(=O)c2cc(Oc3ccc(NC(=O)Nc4cccc(C(F)(F)F)c4)cc3)ccn2)C(C)(C)C)cc1 [MA43, N-(6-(((S)-1-((2S,4R)-4-Hydroxy-2-(((S)-1-(4-(4-methylthiazol-5-yl)phenyl)ethyl)carbamoyl)-pyrrolidin-1-yl)-3,3-dimethyl-1-oxobutan-2-yl)amino)-6-oxohexyl)-4-(4-(3-(3-(trifluoromethyl)phenyl)ureido)phenoxy)picolinamide], the “0 h - %” value [2] is reported as 100%, the 6 h- % [2] is reported as 100.1% and the 12 h- % [2] is reported as 100.3%. It also gave a 24 h- % [2] of 100.5%, a 48 h- % [2] of 101.0% and a 72 h- % [2] of 101.2%. For the same compound, the inhibition at 0.05 µM (FLT3-ITD) was 20% and the “FLT3-ITD degradation” value (FLT3-ITD; MV4-11 cells, 50 nM, 24 h) was “no significant degradation”.
